In US4399286A, “Antiarrhythmic phenethylpiperidine compounds” (Mead Johnson & Company, priority 1981, dated 1983):

Legend:
[1] = system: chloroform-induced arrhythmia; experiment: inhibition of chloroform-induced arrhythmia in the mouse (J. W. Lawson method); assay type: in vivo; settings: ip, intraperitoneal administration, read-out: ED50, prevention of chloroform-induced arrhythmia
From the text: 2. In the mouse, another in vivo test involves the inhibition of chloroform-induced arrhythmia according to the method of J. W. Lawson, Journal of Pharmacology and Experimental Therapeutics, 160, 22 (1968).

rabbit atrium = experiment: in vitro rabbit atrium test, steady state refractory period; settings: rabbit left atrium, Chenoweth's solution, 30° C., stimulated at 30/minute, five minute interval
Experimental: 3. […] In this test, the left atrium is placed in Chenoweth's solution warmed to 30° C. and irrigated with 95% oxygen:5% carbon dioxide. The lower end of the atrium is attached to a small hook fixed in the bath and the upper end is connected to a transducer to record contractile activity. The atrium is electrically stimulated at a basic rate of 30/minute by employing square wave pulses of 10 millisecond duration at 1.2 to 1.5 times threshold voltage. A test compound is introduced into the bath and the test repeated after a five minute interval. A dose-response relationship is obtained with additional doses of the test compound. […] This value is designated the EC50.

Row | SMILES | ED50 [1] [mg/kg] | EC50 (effective concentration which reduces to 50% the maximal increase in the steady state refractory period of the atrium) (rabbit atrium) [µg/mL]
1 | CN1CCCCC1CCc1ccccc1NC(=O)Nc1ccccc1 (stereo not drawn) [Example 1, 2-[2-(1-Methyl-2-piperidinyl)ethyl]carbanilide] | 23 | 1.5
2 | COc1ccc(NC(=O)Nc2ccccc2CCC2CCCCN2C)cc1 (stereo not drawn) [Example 2, 4'-Methoxy-2-[2-(1-methyl-2-piperidinyl)ethyl]carbanilide] | 46 | 29
3 | CN1CCCCC1CCc1ccccc1NC(=S)Nc1ccccc1 (stereo not drawn) [Example 9, 2-[2-(1-Methyl-2-piperidinyl)ethyl]thiocarbanilide] |  | 5.9
4 | COc1ccc(C(=N)Nc2ccccc2CCC2CCCCN2C)cc1 (stereo not drawn) [Example 15, N-[2-[2-(1-Methyl-2-piperidinyl)ethyl]phenyl]-p-anisamidine] |  | 10
